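Results reflect a 48-hour exposure of cells in 96-well plates to compound at five concentrations. Here, GI50 denotes the concentration required for 50% inhibition of growth. The concentration for full growth arrest is given as TGI.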
The molecules below were run on ACHN renal (assay: NCI tumour cell line growth inhibition, 48 h).
COc1ccc(N2C(=O)CC(=O)N(NC(=O)C(C)Oc3ccccc3C)C2=S)cc1 (configuration not stated) was tested, and the TGI was > 100 µM. In the case of O=C1OC(C2Cc3ccc4ccccc4c3C2=O)c2ccccc21 (configuration not stated), the TGI is reported as > 100 µM. With C/C(=N\N=C1/C(=O)OC(c2ccccc2)=C1C(=O)c1ccccc1)c1ccc([N+](=O)[O-])cc1 the TGI was > 100 µM. For O=S(=O)(O)C(CO)c1ccccc1 (configuration not stated) (tested in a mixture with another compound), the TGI was > 100 µM. O=C1c2ccccc2C(=O)N1n1c(Cc2ccc([N+](=O)[O-])cc2)n[nH]c1=O was tested, and the TGI was > 100 µM. Molecule Cc1nn(-c2ccccc2)c2c1C(c1cc3ccccc3nc1Cl)NC(=O)N2 (configuration not stated) has a TGI of 35.8 µM. In the case of COc1ccc(C2OC(c3ccncc3)=NN2C)cc1F (configuration not stated), the TGI is reported as > 100 µM. With Cc1cc(/N=C/c2ccc(N(C)C)cc2)n(-c2ccccc2)n1 the TGI was > 100 µM. Molecule O=C(/C=C/c1ccccc1)Oc1ccc(C(=O)/C=C/c2ccccc2)cc1 has a TGI of 18.3 µM. In the case of COC(=O)C(Cc1ccc2c(c1)CCC2)Cc1ccc2c(c1)CCC2, the TGI is reported as > 100 µM. C/C(C[n+]1ccccc1)=N\N=C(N)N was tested, and the TGI was > 100 µM. For NS(=O)(=O)c1ccc(NC(=S)/N=C/C2=C(O)c3ccccc3C2=O)cc1, the TGI was > 100 µM. For O=C1NC2c3c(I)sc(I)c3C(O)C2O1 (configuration not stated), the TGI was > 100 µM. Cc1nc(C)c(C(=O)NNC(=O)C[N+](C)(C)C)cc1C(=O)NNC(=O)C[N+](C)(C)C was tested, and the TGI was > 100 µM. NCCCN1c2ccccc2Sc2ccc(Cl)cc21 was tested, and the TGI was > 10 µM. In the case of CCOC(=O)c1cccc(N=Nc2nc[nH]c2/C=C/C(=O)OC)c1, the TGI is reported as > 100 µM. O=C(O)CN1CCN2CCCCCN(CC1)CCN(CC(=O)O)CC2 was tested, and the TGI was > 100 µM. Cc1cccc(C)c1NC(=O)C(Cc1c[nH]c2ccccc12)NC(=O)OCc1ccccc1 (configuration not stated) showed a TGI of 53.2 µM. For S=C1NC2=C(CSC/C2=C\c2cccc(Br)c2)C(c2cccc(Br)c2)N1 (configuration not stated), the TGI was > 100 µM. With Clc1ccc(-c2nnc3sc4nc5ccccc5c-4nn23)c(Cl)c1 the TGI was > 100 µM. C=C(C(=O)OCC)C(=O)OCC was tested, and the TGI was > 100 µM. Work on N#CC(C#N)=C1SC(=Nc2ccccc2)C(=Nc2ccccc2)N1c1ccccc1 yielded a TGI of 71.3 µM. Molecule C[n+]1c(/C=C/c2c(O)ccc3ccccc23)ccc2ccccc21 has a GI50 of 5.1 µM and a TGI of 11.4 µM. For O=C1c2cc(-c3ccccc3)cnc2S(=O)(=O)N1c1ccc(Br)cc1, the TGI was > 100 µM. CC(=NNC(=S)Nc1ccccc1)c1cccc(C(C)=NNC(=S)Nc2ccccc2)n1 was tested, and the TGI was 6.86 µM. For CC(C)c1cc2c(c(O)c1O)[C@@]1(C(=O)O)CCCC(C)(C)[C@@H]1CC2, the TGI was 26.2 µM. In the case of COC1=CC(=O)c2c(c(-c3nc(C)cs3)cn2C)C1=O, the TGI is reported as > 100 µM. With CCCNc1ncnc2c1ncn2C the TGI was > 100 µM. For CCOS(C)(=O)=O, the TGI was > 100 µM. With C=CCc1cc(-c2nc(=S)[nH][nH]2)ccc1N=NNc1ccc(C(=O)O)cc1 the TGI was > 100 µM. For CC(C)SC(=S)Sc1c(Cl)c(Cl)nc(Cl)c1Cl, the TGI was 18.6 µM. For O=C(O)CN1CCNCCN(CC(=O)O)CCN(CC(=O)O)CCNCC1, the TGI was > 100 µM. CCCCCCCCCCCC[S+](C)C was tested, and the TGI was 19.4 µM. In the case of CC(C)(C)[Si](C)(C)OCC1OC(n2ccc(=O)[nH]c2=O)C(O[Si](C)(C)C(C)(C)C)/C1=C/C#N (configuration not stated), the TGI is reported as > 60.5 µM.

The molecules below were run on SN12C renal (assay: NCI tumour cell line growth inhibition, 48 h).
For COc1ccc(N2C(=O)CC(=O)N(NC(=O)C(C)Oc3ccccc3C)C2=S)cc1 (configuration not stated), the TGI was > 100 µM. In the case of O=C1OC(C2Cc3ccc4ccccc4c3C2=O)c2ccccc21 (configuration not stated), the TGI is reported as > 100 µM. C/C(=N\N=C1/C(=O)OC(c2ccccc2)=C1C(=O)c1ccccc1)c1ccc([N+](=O)[O-])cc1 was tested, and the TGI was > 100 µM. For O=S(=O)(O)C(CO)c1ccccc1 (configuration not stated) (tested in a mixture with another compound), the TGI was > 100 µM. O=C1c2ccccc2C(=O)N1n1c(Cc2ccc([N+](=O)[O-])cc2)n[nH]c1=O was tested, and the TGI was > 100 µM. With Cc1nn(-c2ccccc2)c2c1C(c1cc3ccccc3nc1Cl)NC(=O)N2 (configuration not stated) the TGI was 67.5 µM. With COc1ccc(C2OC(c3ccncc3)=NN2C)cc1F (configuration not stated) the TGI was > 100 µM. Cc1cc(/N=C/c2ccc(N(C)C)cc2)n(-c2ccccc2)n1 was tested, and the TGI was > 100 µM. Work on O=C(/C=C/c1ccccc1)Oc1ccc(C(=O)/C=C/c2ccccc2)cc1 yielded a TGI of 15.2 µM. COC(=O)C(Cc1ccc2c(c1)CCC2)Cc1ccc2c(c1)CCC2 was tested, and the TGI was > 100 µM. For C/C(C[n+]1ccccc1)=N\N=C(N)N, the TGI was > 100 µM. In the case of NS(=O)(=O)c1ccc(NC(=S)/N=C/C2=C(O)c3ccccc3C2=O)cc1, the TGI is reported as > 100 µM. For O=C1NC2c3c(I)sc(I)c3C(O)C2O1 (configuration not stated), the TGI was > 100 µM. In the case of Cc1nc(C)c(C(=O)NNC(=O)C[N+](C)(C)C)cc1C(=O)NNC(=O)C[N+](C)(C)C, the TGI is reported as > 100 µM. With NCCCN1c2ccccc2Sc2ccc(Cl)cc21 the TGI was > 10 µM. CCOC(=O)c1cccc(N=Nc2nc[nH]c2/C=C/C(=O)OC)c1 gave a TGI of 68.1 µM. O=C(O)CN1CCN2CCCCCN(CC1)CCN(CC(=O)O)CC2 was tested, and the TGI was > 100 µM. Cc1cccc(C)c1NC(=O)C(Cc1c[nH]c2ccccc12)NC(=O)OCc1ccccc1 (configuration not stated) was tested, and the TGI was 80.7 µM. For S=C1NC2=C(CSC/C2=C\c2cccc(Br)c2)C(c2cccc(Br)c2)N1 (configuration not stated), the TGI was > 100 µM. With Clc1ccc(-c2nnc3sc4nc5ccccc5c-4nn23)c(Cl)c1 the TGI was > 100 µM. C=C(C(=O)OCC)C(=O)OCC was tested, and the TGI was > 100 µM. N#CC(C#N)=C1SC(=Nc2ccccc2)C(=Nc2ccccc2)N1c1ccccc1 showed a TGI of 77.2 µM. C[n+]1c(/C=C/c2c(O)ccc3ccccc23)ccc2ccccc21 gave a GI50 of 6.08 µM and a TGI of 13.6 µM. O=C1c2cc(-c3ccccc3)cnc2S(=O)(=O)N1c1ccc(Br)cc1 was tested, and the TGI was > 100 µM. With CC(=NNC(=S)Nc1ccccc1)c1cccc(C(C)=NNC(=S)Nc2ccccc2)n1 the TGI was > 100 µM. For CC(C)c1cc2c(c(O)c1O)[C@@]1(C(=O)O)CCCC(C)(C)[C@@H]1CC2, the TGI was 64.8 µM. Molecule COC1=CC(=O)c2c(c(-c3nc(C)cs3)cn2C)C1=O has a TGI of 27 µM. CCCNc1ncnc2c1ncn2C gave a TGI of 98.2 µM. For CCOS(C)(=O)=O, the TGI was > 100 µM. C=CCc1cc(-c2nc(=S)[nH][nH]2)ccc1N=NNc1ccc(C(=O)O)cc1 was tested, and the TGI was > 100 µM. With CC(C)SC(=S)Sc1c(Cl)c(Cl)nc(Cl)c1Cl the TGI was 27.6 µM. With O=C(O)CN1CCNCCN(CC(=O)O)CCN(CC(=O)O)CCNCC1 the TGI was > 100 µM. CCCCCCCCCCCC[S+](C)C showed a TGI of 15.3 µM. In the case of CC(C)(C)[Si](C)(C)OCC1OC(n2ccc(=O)[nH]c2=O)C(O[Si](C)(C)C(C)(C)C)/C1=C/C#N (configuration not stated), the TGI is reported as 32.5 µM.

These molecules were tested on SK-MEL-2 melanoma (assay: NCI tumour cell line growth inhibition, 48 h).
For COc1ccc(N2C(=O)CC(=O)N(NC(=O)C(C)Oc3ccccc3C)C2=S)cc1 (configuration not stated), the TGI was > 100 µM. O=C1OC(C2Cc3ccc4ccccc4c3C2=O)c2ccccc21 (configuration not stated) was tested, and the TGI was > 100 µM. In the case of C/C(=N\N=C1/C(=O)OC(c2ccccc2)=C1C(=O)c1ccccc1)c1ccc([N+](=O)[O-])cc1, the TGI is reported as > 100 µM. O=S(=O)(O)C(CO)c1ccccc1 (configuration not stated) (tested in a mixture with another compound) was tested, and the TGI was > 100 µM. O=C1c2ccccc2C(=O)N1n1c(Cc2ccc([N+](=O)[O-])cc2)n[nH]c1=O was tested, and the TGI was > 100 µM. Cc1nn(-c2ccccc2)c2c1C(c1cc3ccccc3nc1Cl)NC(=O)N2 (configuration not stated) showed a TGI of 29.5 µM. With COc1ccc(C2OC(c3ccncc3)=NN2C)cc1F (configuration not stated) the TGI was > 100 µM. Cc1cc(/N=C/c2ccc(N(C)C)cc2)n(-c2ccccc2)n1 was tested, and the TGI was > 100 µM. In the case of O=C(/C=C/c1ccccc1)Oc1ccc(C(=O)/C=C/c2ccccc2)cc1, the TGI is reported as > 66.1 µM. In the case of COC(=O)C(Cc1ccc2c(c1)CCC2)Cc1ccc2c(c1)CCC2, the TGI is reported as > 100 µM. C/C(C[n+]1ccccc1)=N\N=C(N)N was tested, and the TGI was > 100 µM. In the case of NS(=O)(=O)c1ccc(NC(=S)/N=C/C2=C(O)c3ccccc3C2=O)cc1, the TGI is reported as > 100 µM. O=C1NC2c3c(I)sc(I)c3C(O)C2O1 (configuration not stated) was tested, and the TGI was > 100 µM. For Cc1nc(C)c(C(=O)NNC(=O)C[N+](C)(C)C)cc1C(=O)NNC(=O)C[N+](C)(C)C, the TGI was > 100 µM. For NCCCN1c2ccccc2Sc2ccc(Cl)cc21, the TGI was > 10 µM. CCOC(=O)c1cccc(N=Nc2nc[nH]c2/C=C/C(=O)OC)c1 was tested, and the TGI was 63.5 µM. For O=C(O)CN1CCN2CCCCCN(CC1)CCN(CC(=O)O)CC2, the TGI was > 100 µM.

From PubChem BioAssay (NCI)
